Where “and” joins values, the source holds several entries; their conditions need not be identical. Identical values can stand only once. Like-named read-outs stand apart in the source and are kept apart here.

What all share (type): biochemical
For one assay, the target named is T1, recombinant human LOXL4 (Homo sapiens, UniProt Q96JB6).
T1 construct: Dr. Fernando Rodríguez Pascual, university of Madrid, Spain (academic provider)
T1 sequence (Q96JB6 25-756): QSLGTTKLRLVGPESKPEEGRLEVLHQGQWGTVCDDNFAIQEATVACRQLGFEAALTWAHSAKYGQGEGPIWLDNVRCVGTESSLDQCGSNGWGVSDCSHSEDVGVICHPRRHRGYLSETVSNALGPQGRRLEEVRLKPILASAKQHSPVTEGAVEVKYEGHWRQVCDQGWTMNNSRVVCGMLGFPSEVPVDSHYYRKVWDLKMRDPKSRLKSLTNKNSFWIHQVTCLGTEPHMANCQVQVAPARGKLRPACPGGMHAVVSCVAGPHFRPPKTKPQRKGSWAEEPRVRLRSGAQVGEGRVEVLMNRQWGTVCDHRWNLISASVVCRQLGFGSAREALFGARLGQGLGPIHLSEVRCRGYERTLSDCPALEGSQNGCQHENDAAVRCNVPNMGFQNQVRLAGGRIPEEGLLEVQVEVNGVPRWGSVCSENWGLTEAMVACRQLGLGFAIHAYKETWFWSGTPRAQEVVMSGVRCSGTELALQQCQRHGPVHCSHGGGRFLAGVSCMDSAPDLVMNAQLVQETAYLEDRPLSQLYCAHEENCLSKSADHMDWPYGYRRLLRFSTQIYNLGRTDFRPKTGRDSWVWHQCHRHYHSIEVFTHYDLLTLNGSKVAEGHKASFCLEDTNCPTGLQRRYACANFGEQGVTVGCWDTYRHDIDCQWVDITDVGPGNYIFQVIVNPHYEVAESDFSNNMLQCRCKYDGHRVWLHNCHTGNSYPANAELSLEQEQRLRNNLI
Put plainly: Amplex Red oxidation assay, LOXL4 inhibition. How it is done: (§1) The measurement of the enzymatic activity of all lysyl oxidase family members was based on the detection of hydrogen peroxide with an Amplex-Red oxidation assay, as previously described; miniaturized in 384 well formats, with the appropriate combination of substrate and assay buffer for each individual enzyme. After a 30 min pre-incubation of the enzyme at 37 °C with the test compound (or with different incubation times for the time-dependency assay), one volume of reaction mixture containing 120 μM Amplex Red (AR) (Life Technologies), 1.5 U/mL horseradish peroxidase (HRP) (Sigma-Aldrich) and the specific substrate was added to each sample. The relative fluorescence units (RFU) were then measured every 2.5 min for 30 min at 37 °C, excitation 565 nm and emission 590, on a BMG Clariostar Microplate Reader. All the substrates were used at concentrations corresponding to their Km towards the corresponding enzyme, or with a range of different concentrations for the substrate competition experiments.
(§2) Lysyl oxidases assay buffer contained 1.2 M urea, 50 mM sodium borate buffer, pH 8.2 and 100 µM β-aminoproprionitrile (BAPN, Sigma-Aldrich) was used for low control.
(§3) Recombinant human LOXL1 was expressed and purified from cDNA (GeneArt) and 10 mM putrescine was used as substrate. Recombinant human and mouse LOXL2 (R&D Systems) were challenged with 5 mM putrescine (Sigma-Aldrich) as the substrate. Rat and dog recombinant LOXL2 were amplified and purified in house from HEK-293 clones kindly provided by Dr. Fernando Rodríguez Pascual, Madrid University, and used in the same conditions as for the human form. 2 mM putrescine was used as the substrate for recombinant human LOXL3 (R&D Systems) and LOXL4 (Dr. Fernando Rodríguez Pascual, university of Madrid, Spain) assays.

The target in the next assay is T2, Human Recombinant SSAO (Homo sapiens, UniProt Q16853).
T2 sequence (Q16853 1-763): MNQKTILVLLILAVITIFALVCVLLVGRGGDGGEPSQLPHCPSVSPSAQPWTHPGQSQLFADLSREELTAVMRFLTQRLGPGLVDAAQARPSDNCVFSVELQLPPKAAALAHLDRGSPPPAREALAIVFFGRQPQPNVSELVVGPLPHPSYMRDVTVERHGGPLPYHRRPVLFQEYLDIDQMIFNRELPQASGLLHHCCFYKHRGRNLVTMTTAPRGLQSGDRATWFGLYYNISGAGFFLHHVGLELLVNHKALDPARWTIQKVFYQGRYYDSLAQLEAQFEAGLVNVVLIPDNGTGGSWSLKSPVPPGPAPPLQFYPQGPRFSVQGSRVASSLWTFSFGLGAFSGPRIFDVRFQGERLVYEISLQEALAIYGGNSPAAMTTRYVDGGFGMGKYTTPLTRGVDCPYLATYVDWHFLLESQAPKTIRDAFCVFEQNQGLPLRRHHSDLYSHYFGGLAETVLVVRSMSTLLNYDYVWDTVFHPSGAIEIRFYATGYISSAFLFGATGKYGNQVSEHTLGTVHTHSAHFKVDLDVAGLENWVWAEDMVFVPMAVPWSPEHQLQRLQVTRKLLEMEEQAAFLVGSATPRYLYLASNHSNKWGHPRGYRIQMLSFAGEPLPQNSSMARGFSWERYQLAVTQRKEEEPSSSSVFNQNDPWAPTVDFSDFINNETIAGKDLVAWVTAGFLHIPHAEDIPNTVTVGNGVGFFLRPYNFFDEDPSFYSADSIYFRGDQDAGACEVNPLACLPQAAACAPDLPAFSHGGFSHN
Put plainly: Amine oxidase inhibition profile, SSAO. The text has this: Supplem entary Materi als:
Supplementary Table S1: Amine oxidase inhibition profile of PXS -4787, PXS-6302 and
Supplementary Table S2: Perm eability profile of PXS -6302.

Another assay addresses T3, Recombinant human LOXL1 (Homo sapiens, UniProt Q08397).
T3 construct: made in house
T3 sequence (Q08397 96-574): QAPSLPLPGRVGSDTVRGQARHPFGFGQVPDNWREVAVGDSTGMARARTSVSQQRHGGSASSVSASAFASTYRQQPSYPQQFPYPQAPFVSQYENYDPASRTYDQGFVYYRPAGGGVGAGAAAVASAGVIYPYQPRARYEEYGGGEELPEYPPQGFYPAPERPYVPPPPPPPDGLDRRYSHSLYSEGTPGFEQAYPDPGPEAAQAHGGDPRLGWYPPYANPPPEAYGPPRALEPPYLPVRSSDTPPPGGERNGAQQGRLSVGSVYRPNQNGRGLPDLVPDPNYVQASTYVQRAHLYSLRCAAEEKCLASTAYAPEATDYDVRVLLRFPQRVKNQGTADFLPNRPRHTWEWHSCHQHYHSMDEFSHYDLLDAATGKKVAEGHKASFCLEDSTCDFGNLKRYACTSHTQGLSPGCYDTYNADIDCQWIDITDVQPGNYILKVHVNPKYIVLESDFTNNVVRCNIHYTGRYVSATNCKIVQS
Put plainly: Amplex Red oxidation assay, LOXL1 inhibition. How it is done: as §1, §2, §3

[1] abbreviates: 30 min pre-incubation, read-out: rh LOXL4 IC50.
The mark [2] stands for this setting: read-out: Recombinant SSAO IC50.
Where [3] appears, read: 30 min pre-incubation, read-out: rh LOXL1 IC50.
Where [4] appears, read: log conc -4.5229, read-out: Fig 2A inhibition (mean).
Setting [5] is: log conc -5, read-out: Fig 2A inhibition (mean).
The mark [6] stands for this setting: log conc -5.4771, read-out: Fig 2A inhibition (mean).
[7] abbreviates: log conc -5.9542, read-out: Fig 2A inhibition (mean).
[8] abbreviates: log conc -6.4313, read-out: Fig 2A inhibition (mean).
Setting [9] is: log conc -6.9083, read-out: Fig 2A inhibition (mean).
Setting [10] is: log conc -7.3851, read-out: Fig 2A inhibition (mean).
Setting [11] is: log conc -7.8633, read-out: Fig 2A inhibition (mean).
The mark [12] stands for this setting: log conc -8.3372, read-out: Fig 2A inhibition (mean).
[13] abbreviates: log conc -8.8239, read-out: Fig 2A inhibition (mean).
[14] abbreviates: log conc -9.301, read-out: Fig 2A inhibition (mean).
Where [15] appears, read: read-out: Human Recombinant LOXL4 pIC50±SD (converted).
Where [16] appears, read: read-out: Human Recombinant LOXL1 pIC50±SD (converted).

For the compound `N#CCCN` [BAPN, β-aminoproprionitrile, reference compound], the “Human Recombinant LOXL4 pIC50±SD” value at recombinant human LOXL4 came out at 6.6 ± 0.1. In addition, the values for the IC50 on recombinant human LOXL4 (setting [1]), on Human Recombinant SSAO (setting [2]) and on Recombinant human LOXL1 (setting [3]) were 0.28 µM, over 100 µM and 2.46 µM, respectively. Further, the “Recombinant SSAO pIC50” value on Human Recombinant SSAO is listed as under 4. Further, the “Human Recombinant LOXL1 pIC50±SD” value at Recombinant human LOXL1 was determined as 5.6 ± 0.1.

A word on the inhibition: it is the relative decrease from the control value, in per cent. Turning to `NC/C=C(\F)CS(=O)(=O)c1ccccc1` [PXS-4787], the IC50 at recombinant human LOXL4 (setting [1]) was 0.22 µM; at recombinant human LOXL4 (setting [15]), 0.2 µM; at Human Recombinant SSAO (setting [2]), over 100 µM; on Recombinant human LOXL1 (setting [3]) it was 3 µM and 3.23 µM; on Recombinant human LOXL1 (setting [16]) it was 3.16 µM. Moreover, the inhibition at 30 µM at recombinant human LOXL4 (setting [4]) was 102%; at Recombinant human LOXL1 (setting [4]), 97.5%. Also, the inhibition at 10 µM on recombinant human LOXL4 (setting [5]) came out at 101%; on Recombinant human LOXL1 (setting [5]), 84.7%. In addition, the inhibition at 3.333 µM at recombinant human LOXL4 (setting [6]) turned out to be 98.6%; on Recombinant human LOXL1 (setting [6]) it was 56.4%. Besides, the inhibition at 1.111 µM on recombinant human LOXL4 (setting [7]) was 89.8%; at Recombinant human LOXL1 (setting [7]), 26.9%. Also, the inhibition at 0.3704 µM at recombinant human LOXL4 (setting [8]) is 66.3%; on Recombinant human LOXL1 (setting [8]), 13.6%. Further, the figures for the inhibition at 0.1235 µM on recombinant human LOXL4 (setting [9]) and on Recombinant human LOXL1 (setting [9]) were 36.5% and 6.04%, respectively. In addition, the inhibition at 0.0412 µM was found to be 14.1% at recombinant human LOXL4 (setting [10]) and 2.88% on Recombinant human LOXL1 (setting [10]). Further, the results for the inhibition at 0.0137 µM at recombinant human LOXL4 (setting [11]) and on Recombinant human LOXL1 (setting [11]) were 8.84% and 3.87%, respectively. For the same compound, the inhibition at 0.0046 µM amounted to 2.39% at recombinant human LOXL4 (setting [12]) and 0.808% at Recombinant human LOXL1 (setting [12]). Besides, the inhibition at […] on recombinant human LOXL4 (setting [13]) was 0.738%; on Recombinant human LOXL1 (setting [13]) it was -1.89%. The inhibition at 0.0005 µM at recombinant human LOXL4 (setting [14]) was -0.645%; on Recombinant human LOXL1 (setting [14]) it was 1.05%.

For `NC/C=C(\F)C(F)(F)S(=O)(=O)c1ccccc1` [PXS-6302], the IC50 at recombinant human LOXL4 (setting [1]) was 0.32 µM; at recombinant human LOXL4 (setting [15]), 0.316 µM; on Human Recombinant SSAO, over 30 µM; at Recombinant human LOXL1 (setting [3]), 3.42 µM; at Recombinant human LOXL1 (setting [16]) it was 3.16 µM.
